Our source for the T/C values is PubChem BioAssay AID256 (DTP/NCI, 2004).

This assay relates to CD2F1 mice, L1210 leukemia ip, survival T/C. The assay is described as follows: NCI In Vivo Anticancer Drug Screen. Data for tumor model L1210 Leukemia (intraperitoneal) in CD2F1 (CDF1) mice. The following applies: higher = longer survival. Put shortly: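 Each value reflects a quotient of treated over vehicle control outcomes in mice with a transplanted tumor.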
The mark [1] stands for this setting: endpoint: mean survival time, dose: 100.0 mg/kg/injection, schedule: Q01DX001 (ip), vehicle: saline with Tween-80.
[2] abbreviates: endpoint: mean survival time, dose: 100.0 mg/kg/injection, schedule: Q04DX003 (ip), vehicle: saline with Tween-80.
[3] abbreviates: endpoint: mean survival time, dose: 200.0 mg/kg/injection, schedule: Q04DX003 (ip), vehicle: saline with Tween-80.
Where [4] appears, read: endpoint: mean survival time, dose: 400.0 mg/kg/injection, schedule: Q04DX003 (ip), vehicle: saline with Tween-80.
[5] abbreviates: endpoint: mean survival time, dose: 100.0 mg/kg/injection, schedule: Q01DX009 (ip), vehicle: saline with Tween-80.
Where [6] appears, read: endpoint: mean survival time, dose: 50.0 mg/kg/injection, schedule: Q01DX009 (ip), vehicle: saline with Tween-80.

“And” between values parts separate entries of the source, which are not always exact repeats. Identical values can stand only once. Toxic doses and inconclusive results are not listed.

Turning to `COc1ccc(/C=C/c2cc[n+](C)cc2)cc1`, the T/C is 102 % of control (endpoint: mean survival time, dose: 12.5 mg/kg/injection, schedule: Q01DX009 (ip), vehicle: saline) and 95 % of control (endpoint: mean survival time, dose: 25.0 mg/kg/injection, schedule: Q01DX009 (ip), vehicle: saline).

On to `COC1OC2COC(c3ccccc3)OC2/C(=N/O)C1[n+]1ccccc1` (centres undefined), for which the T/C (endpoint: mean survival time, dose: 25.0 mg/kg/injection, schedule: Q01DX001 (ip), vehicle: saline with Tween-80) is 94 % of control; the T/C (endpoint: mean survival time, dose: 50.0 mg/kg/injection, schedule: Q01DX001 (ip), vehicle: saline with Tween-80) was 107 % of control; the T/C under setting [1] was 98 % of control and 102 % of control.

As to `Cc1ccccc1N=C(c1ccccc1)C1C(=O)c2ccccc2C1=O`, the T/C (endpoint: median survival time, dose: 50.0 mg/kg/injection, schedule: Q01DX005 (ip), vehicle: DMSO) was 103 % of control; the T/C (endpoint: median survival time, dose: 100.0 mg/kg/injection, schedule: Q01DX005 (ip), vehicle: DMSO) was 100 % of control; the T/C (endpoint: median survival time, dose: 200.0 mg/kg/injection, schedule: Q01DX005 (ip), vehicle: DMSO) was 103 % of control; the T/C (endpoint: median survival time, dose: 400.0 mg/kg/injection, schedule: Q01DX005 (ip), vehicle: DMSO) is 101 % of control; the T/C (endpoint: median survival time, dose: 800.0 mg/kg/injection, schedule: Q01DX005 (ip), vehicle: DMSO) is 100 % of control.

With `CC(=O)SC(Cc1ccccc1)(Cc1ccccc1)SC(C)=O`, the T/C reads like this: under setting [2], 97 % of control; under setting [3], 95 % of control; under setting [4], 100 % of control.

On to `O=C1CCC(Cl)S(=O)(=O)c2ccccc21` (centres undefined), for which the T/C is, setting by setting: under setting [1], 97 % of control; (endpoint: mean survival time, dose: 200.0 mg/kg/injection, schedule: Q01DX001 (ip), vehicle: saline with Tween-80) 105 % of control; (endpoint: mean survival time, dose: 400.0 mg/kg/injection, schedule: Q01DX001 (ip), vehicle: saline with Tween-80) 94 % of control.

Take `CC(=O)OC(c1ccccc1)C(Cl)(Cl)Cl` (centres undefined): the T/C reads like this: under setting [2], 100 % of control; under setting [3], 105 % of control; under setting [4], 105 % of control.

With `Clc1ccc(OCc2sc3ccc(Cl)cc3c2CN2CCOCC2)cc1`, the T/C reads like this: under setting [5], 94 % of control; (endpoint: mean survival time, dose: 200.0 mg/kg/injection, schedule: Q01DX009 (ip), vehicle: saline with Tween-80) 101 % of control; (endpoint: mean survival time, dose: 400.0 mg/kg/injection, schedule: Q01DX009 (ip), vehicle: saline with Tween-80) 92 % of control.

For the compound `c1cc2c3c(c1)nc(CCCc1nc4cccc5c4n1CCC5)n3CCC2`, the T/C (endpoint: mean survival time, dose: 25.0 mg/kg/injection, schedule: Q01DX009 (ip), vehicle: saline with Tween-80) was 103 % of control; the T/C under setting [6] was 96 % of control; the T/C under setting [5] is 94 % of control.

`CC1C=NNC1=O` (centres undefined): the T/C runs as follows: (endpoint: mean survival time, dose: 8.0 mg/kg/injection, schedule: Q03HX016 (ip), vehicle: saline) 101 % of control; (endpoint: mean survival time, dose: 8.0 mg/kg/injection, schedule: Q03HX024 (ip), vehicle: saline) 96 % of control; (endpoint: mean survival time, dose: 12.5 mg/kg/injection, schedule: Q01DX009 (ip), vehicle: Klucel (hydroxypropylcellulose) (HPC)) 97 % of control; (endpoint: mean survival time, dose: 16.0 mg/kg/injection, schedule: Q03HX016 (ip), vehicle: saline) 98 % of control; (endpoint: mean survival time, dose: 16.0 mg/kg/injection, schedule: Q03HX024 (ip), vehicle: saline) 100 % of control; (endpoint: mean survival time, dose: 25.0 mg/kg/injection, schedule: Q01DX009 (ip), vehicle: Klucel (hydroxypropylcellulose) (HPC)) 110 % of control. The T/C runs as follows: (endpoint: mean survival time, dose: 32.0 mg/kg/injection, schedule: Q03HX016 (ip), vehicle: saline) 112 % of control; (endpoint: mean survival time, dose: 32.0 mg/kg/injection, schedule: Q03HX024 (ip), vehicle: saline) 116 % of control; (endpoint: mean survival time, dose: 50.0 mg/kg/injection, schedule: Q01DX009 (ip), vehicle: Klucel (hydroxypropylcellulose) (HPC)) 111 % of control; (endpoint: mean survival time, dose: 64.0 mg/kg/injection, schedule: Q01DX009 (ip), vehicle: saline) 109 % of control; (endpoint: mean survival time, dose: 64.0 mg/kg/injection, schedule: Q03HX016 (ip), vehicle: saline) 110 % of control; (endpoint: mean survival time, dose: 64.0 mg/kg/injection, schedule: Q03HX024 (ip), vehicle: saline) 108 % of control. Moreover, the T/C is 103 % of control (endpoint: mean survival time, dose: 64.0 mg/kg/injection, schedule: Q04DX003 (ip), vehicle: saline); 102 % of control (endpoint: mean survival time, dose: 64.0 mg/kg/injection, schedule: Q08DX002 (ip), vehicle: saline); 117 % of control (endpoint: mean survival time, dose: 100.0 mg/kg/injection, schedule: Q01DX009 (ip), vehicle: saline); 118 % of control (endpoint: mean survival time, dose: 128.0 mg/kg/injection, schedule: Q01DX009 (ip), vehicle: saline); 103 % of control (endpoint: mean survival time, dose: 128.0 mg/kg/injection, schedule: Q04DX003 (ip), vehicle: saline); 101 % of control (endpoint: mean survival time, dose: 128.0 mg/kg/injection, schedule: Q08DX002 (ip), vehicle: saline). Moreover, the T/C is, setting by setting: (endpoint: mean survival time, dose: 200.0 mg/kg/injection, schedule: Q01DX009 (ip), vehicle: saline) 123 % of control; (endpoint: mean survival time, dose: 256.0 mg/kg/injection, schedule: Q04DX003 (ip), vehicle: saline) 110 % of control; (endpoint: mean survival time, dose: 256.0 mg/kg/injection, schedule: Q08DX002 (ip), vehicle: saline) 102 % of control; (endpoint: mean survival time, dose: 400.0 mg/kg/injection, schedule: Q01DX009 (ip), vehicle: Klucel (hydroxypropylcellulose) (HPC)) 155 % of control; (endpoint: mean survival time, dose: 512.0 mg/kg/injection, schedule: Q04DX003 (ip), vehicle: saline) 103 % of control; (endpoint: mean survival time, dose: 512.0 mg/kg/injection, schedule: Q08DX002 (ip), vehicle: saline) 106 % of control.

Consider `Cc1ccc(N)nc1[N+](=O)[O-]`, for which the T/C is 100 % of control (endpoint: mean survival time, dose: 100.0 mg/kg/injection, schedule: Q01DX009 (ip), vehicle: other); 102 % of control (endpoint: mean survival time, dose: 100.0 mg/kg/injection, schedule: Q04DX003 (ip), vehicle: other); 96 % of control (endpoint: mean survival time, dose: 200.0 mg/kg/injection, schedule: Q01DX009 (ip), vehicle: other); 96 % of control (endpoint: mean survival time, dose: 200.0 mg/kg/injection, schedule: Q04DX003 (ip), vehicle: other); 100 % of control (endpoint: mean survival time, dose: 400.0 mg/kg/injection, schedule: Q01DX009 (ip), vehicle: other); 96 % of control (endpoint: mean survival time, dose: 400.0 mg/kg/injection, schedule: Q04DX003 (ip), vehicle: other).

On to `Cc1noc2nccnc12`, for which the T/C by setting is: under setting [6], 103 % of control; under setting [5], 101 % of control; under setting [2], 94 % of control.

Turning to `Cc1ccc(C(C)C)c(OCC2=NCCN2C)c1`, the T/C (endpoint: mean survival time, dose: 100.0 mg/kg/injection, schedule: Q04DX003 (ip), vehicle: saline) is 106 % of control and the T/C (endpoint: mean survival time, dose: 200.0 mg/kg/injection, schedule: Q04DX003 (ip), vehicle: saline) is 106 % of control.

For `CSc1nc(N)c2cnn(C3OC(CO)C(O)C3O)c2n1` (centres undefined), the T/C is 100 % of control (endpoint: median survival time, dose: 8.13 mg/kg/injection, schedule: Q01DX005 (ip), vehicle: saline with Tween-80); 107 % of control (endpoint: median survival time, dose: 9.0 mg/kg/injection, schedule: Q01DX005 (ip), vehicle: saline); 102 % of control (endpoint: median survival time, dose: 12.5 mg/kg/injection, schedule: Q01DX005 (ip), vehicle: saline with Tween-80); 97 % of control (endpoint: median survival time, dose: 16.25 mg/kg/injection, schedule: Q01DX005 (ip), vehicle: saline with Tween-80); 100 % of control (endpoint: median survival time, dose: 18.0 mg/kg/injection, schedule: Q01DX005 (ip), vehicle: saline); 100 % of control (endpoint: median survival time, dose: 25.0 mg/kg/injection, schedule: Q01DX005 (ip), vehicle: saline with Tween-80). The T/C reads like this: (endpoint: median survival time, dose: 32.5 mg/kg/injection, schedule: Q01DX005 (ip), vehicle: saline with Tween-80) 101 % of control; (endpoint: median survival time, dose: 36.0 mg/kg/injection, schedule: Q01DX005 (ip), vehicle: saline) 103 % of control; (endpoint: median survival time, dose: 50.0 mg/kg/injection, schedule: Q01DX005 (ip), vehicle: saline with Tween-80) 94 % of control; (endpoint: median survival time, dose: 65.0 mg/kg/injection, schedule: Q01DX005 (ip), vehicle: saline with Tween-80) 100 % of control; (endpoint: median survival time, dose: 72.0 mg/kg/injection, schedule: Q01DX005 (ip), vehicle: saline) 97 % of control; (endpoint: median survival time, dose: 100.0 mg/kg/injection, schedule: Q01DX005 (ip), vehicle: saline with Tween-80) 93 % of control. Besides, the T/C runs as follows: (endpoint: median survival time, dose: 130.0 mg/kg/injection, schedule: Q01DX005 (ip), vehicle: saline with Tween-80) 101 % of control; (endpoint: median survival time, dose: 200.0 mg/kg/injection, schedule: Q01DX005 (ip), vehicle: saline with Tween-80) 94 % of control.
